Test results taken from PubChem BioAssay (NCI).
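Step 1: Grow cells in 96-well plates. Step 2: Expose to compound for 48 hours at 5 concentrations. Step 3: Interpolate endpoints linearly; if unreached, use highest concentration. At the GI50, growth is halved. Definition used: TGI = concentration required for complete inhibition of growth.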

Tests used:
Test in all cases: NCI anticancer screen, dose series, 48 h
[1] = test system: ACHN renal
[2] = test system: NCI-H23 lung
[3] = test system: NCI-H460 lung
[4] = test system: SK-MEL-28 melanoma
[5] = test system: SNB-19 CNS
[6] = test system: SNB-75 CNS
[7] = test system: SW-620 colon
[8] = test system: TK-10 renal
[9] = test system: UACC-62 melanoma
[10] = test system: UO-31 renal

Row | Compound | TGI [1] | TGI [2] | TGI [3] | TGI [4] | TGI [5] | TGI [6] | TGI [7] | TGI [8] | TGI [9] | TGI [10] | GI50 [1] | GI50 [2] | GI50 [3] | GI50 [4] | GI50 [5] | GI50 [6] | GI50 [7] | GI50 [8] | GI50 [9] | GI50 [10]
1 | Nc1nc2cc(CNc3ccc(C(=O)NC(CCC(=O)O)C(=O)O)cc3)ccc2nc1-c1ccccc1 (centres undefined) | > 10 µM | > 10 µM | > 10 µM | > 10 µM | > 10 µM | > 10 µM | > 10 µM | > 10 µM | > 10 µM | > 10 µM | – | – | – | – | – | – | – | – | – | –
2 | CC1CCC2(CC1)N=C1CCC(C)CC1C1(CCC(C)CC1)N2 (centres undefined) | > 100 µM | > 100 µM | > 100 µM | > 100 µM | > 100 µM | > 100 µM | > 100 µM | > 100 µM | > 100 µM | > 100 µM | – | – | – | – | – | – | – | – | – | –
3 | NC(=O)CS(=O)CC(N)C(=O)O (centres undefined) | > 100 µM | > 100 µM | > 100 µM | > 100 µM | > 100 µM | > 100 µM | > 100 µM | > 100 µM | > 100 µM | > 100 µM | – | – | – | – | – | – | – | – | – | –
4 | CCCCCCOc1ccc(NC2=C(Cl)C(=O)c3ncccc3C2=O)cc1 | > 10 µM | 4.34 µM | 3.18 µM | 3.04 µM | 4.51 µM | 3.93 µM | 5.38 µM | > 10 µM | 2.75 µM | 2.72 µM | – | – | – | – | – | – | – | – | – | –
5 | Cc1n(CC(=O)c2ccccc2)nc2sc(N)n[n+]12 | > 100 µM | > 100 µM | > 100 µM | > 100 µM | > 100 µM | > 100 µM | > 100 µM | > 100 µM | 37.4 µM | > 100 µM | – | – | – | – | – | – | – | – | – | –
6 | O=C(c1ccccc1)N1C(=S)N(c2ccc([N+](=O)[O-])cc2)C(=Nc2ccccc2)C1=Nc1ccccc1 | > 100 µM | > 100 µM | > 100 µM | > 100 µM | > 100 µM | > 100 µM | > 100 µM | > 100 µM | > 100 µM | > 100 µM | – | – | – | – | – | – | – | – | – | –
7 | CCOC(=O)C(=Cn1c(=S)[nH]c2ccc([N+](=O)[O-])cc21)C(=O)OCC | > 100 µM | > 100 µM | > 100 µM | > 100 µM | > 100 µM | > 100 µM | > 100 µM | > 100 µM | > 100 µM | > 100 µM | – | – | – | – | – | – | – | – | – | –
8 | COc1cc2c(cc1Cl)n([O-])c(C#N)c(N1CCN(c3ccc([N+](=O)[O-])cc3)CC1)[n+]2=O | > 77.2 µM | 91.3 µM | > 100 µM | > 100 µM | > 100 µM | > 70.6 µM | > 100 µM | > 100 µM | > 72.9 µM | > 100 µM | – | – | – | – | – | – | – | – | – | –
9 | O=C(Nc1cccc(-n2ccc3c(NC(=O)c4ccccc4)nccc32)c1)c1cc(N2CCOCC2)cc(C(F)(F)F)c1 | – | > 100 µM | > 36.9 µM | > 100 µM | > 100 µM | 0.678 µM | > 100 µM | > 95.5 µM | > 44.2 µM | > 100 µM | 0.116 µM | 0.613 µM | 0.0374 µM | 0.085 µM | 0.379 µM | 0.0362 µM | 0.0484 µM | 0.435 µM | 0.0511 µM | 0.754 µM
10 | COc1cc(-c2nc3nc(N4CCN(C)CC4)ccc3[nH]2)c(OC)c2[nH]c(COC(C)=O)nc12 | > 100 µM | > 100 µM | 99.3 µM | > 100 µM | > 100 µM | > 100 µM | > 100 µM | > 100 µM | > 100 µM | 85.2 µM | – | – | – | – | – | – | – | – | – | –
11 | CCOc1cc(C2SCC(=O)N2c2nc3cc4sc(N5C(=O)CSC5c5ccc(O)c(OCC)c5)nc4cc3s2)ccc1O (centres undefined) | > 100 µM | > 100 µM | > 27.5 µM | > 100 µM | > 100 µM | > 100 µM | > 100 µM | > 100 µM | > 100 µM | > 100 µM | – | – | – | – | – | – | – | – | – | –
12 | C[C@H](CCC1=NCCN1)[C@H]1CC[C@H]2[C@@H]3CC[C@@H]4C[C@H](O)CC[C@]4(C)[C@H]3C[C@H](O)[C@]12C | 30.5 µM | 27 µM | 31.2 µM | 34.6 µM | 21 µM | 13.5 µM | 44.6 µM | 26.9 µM | 26.3 µM | 52.6 µM | – | – | – | – | – | – | – | – | – | –
13 | Cc1cccc2c1C/C(=C\c1cccc(C)c1C(=O)O)C2=O | > 100 µM | > 100 µM | > 100 µM | > 100 µM | > 100 µM | > 100 µM | > 100 µM | > 100 µM | > 100 µM | > 100 µM | – | – | – | – | – | – | – | – | – | –
14 | CC(=O)NC1=C(NCc2ccc(Cl)cc2)C(=O)c2ccccc2C1=O | 6.13 µM | 13.5 µM | > 50 µM | 11.5 µM | > 50 µM | 15.2 µM | 13.6 µM | 15.1 µM | 8.61 µM | 11.4 µM | – | – | – | – | – | – | – | – | – | –
15 | O=C(C#Cc1cn(C2CC(O)C(CO)O2)c(=O)[nH]c1=O)c1ccccc1 (centres undefined) | > 100 µM | > 100 µM | > 100 µM | > 100 µM | > 100 µM | > 100 µM | 50.4 µM | > 100 µM | > 100 µM | > 100 µM | – | – | – | – | – | – | – | – | – | –
